The target in data set [1] is Voltage-gated inwardly rectifying potassium channel KCNH2 (Homo sapiens, UniProt Q12809).
Data set [2] in a line: in vitro. The settings on record: rat, liver microsomes. (In general: Liver microsomes are a subcellular fraction often used to study metabolism.)
Data set [3] is described as follows: in vitro. The settings on record: dog, liver microsomes.
Data set [4] can be described thus: in vitro. The settings on record: human, liver microsomes.
Data set [5] has as its system A549. Kind of data set: cells. The settings on record: Homo sapiens, A549, 72 h.
For data set [6], the system named is PANC-1. Nature of the data set: cells. The settings on record: Homo sapiens, PANC-1, 72 h.
For data set [7], the system named is DOHH-2. Kind of data set: cells. The settings on record: Homo sapiens, DOHH-2, 72 h.
Data set [8] has as its system HT-29. Nature of the data set: cells. The settings on record: Homo sapiens, HT-29, 72 h.
Data set [9] has as its system LN-18. Nature of the data set: Antiproliferative activity against human LN-18 cells assessed as inhibition of cell growth incubated for 72 hrs MTS assay. The settings on record: LN-18, 72 h. The data set is classed as functional, cell-based.
Data set [10] relates to TMD8. Kind of data set: Antitumor activity against human TMD8 cells xenografted in mouse assessed as tumor growth inhibition at 10 mg/kg, po. The data set is classed as functional. The settings on record: read-out: TGI.
In data set [11] the test system is TMD8. Nature of the data set: cells. The settings on record: Homo sapiens, TMD8, 72 h.
The test system of data set [12] is PC-3. Nature of the data set: cells. The settings on record: Homo sapiens, PC-3, 72 h.
The test system of data set [13] is MDA-MB-231. Kind of data set: cells. The settings on record: Homo sapiens, MDA-MB-231, 72 h.

Some results are limits rather than exact numbers.

Voltage-gated inwardly rectifying potassium channel KCNH2, sequence (Q12809 whole entry): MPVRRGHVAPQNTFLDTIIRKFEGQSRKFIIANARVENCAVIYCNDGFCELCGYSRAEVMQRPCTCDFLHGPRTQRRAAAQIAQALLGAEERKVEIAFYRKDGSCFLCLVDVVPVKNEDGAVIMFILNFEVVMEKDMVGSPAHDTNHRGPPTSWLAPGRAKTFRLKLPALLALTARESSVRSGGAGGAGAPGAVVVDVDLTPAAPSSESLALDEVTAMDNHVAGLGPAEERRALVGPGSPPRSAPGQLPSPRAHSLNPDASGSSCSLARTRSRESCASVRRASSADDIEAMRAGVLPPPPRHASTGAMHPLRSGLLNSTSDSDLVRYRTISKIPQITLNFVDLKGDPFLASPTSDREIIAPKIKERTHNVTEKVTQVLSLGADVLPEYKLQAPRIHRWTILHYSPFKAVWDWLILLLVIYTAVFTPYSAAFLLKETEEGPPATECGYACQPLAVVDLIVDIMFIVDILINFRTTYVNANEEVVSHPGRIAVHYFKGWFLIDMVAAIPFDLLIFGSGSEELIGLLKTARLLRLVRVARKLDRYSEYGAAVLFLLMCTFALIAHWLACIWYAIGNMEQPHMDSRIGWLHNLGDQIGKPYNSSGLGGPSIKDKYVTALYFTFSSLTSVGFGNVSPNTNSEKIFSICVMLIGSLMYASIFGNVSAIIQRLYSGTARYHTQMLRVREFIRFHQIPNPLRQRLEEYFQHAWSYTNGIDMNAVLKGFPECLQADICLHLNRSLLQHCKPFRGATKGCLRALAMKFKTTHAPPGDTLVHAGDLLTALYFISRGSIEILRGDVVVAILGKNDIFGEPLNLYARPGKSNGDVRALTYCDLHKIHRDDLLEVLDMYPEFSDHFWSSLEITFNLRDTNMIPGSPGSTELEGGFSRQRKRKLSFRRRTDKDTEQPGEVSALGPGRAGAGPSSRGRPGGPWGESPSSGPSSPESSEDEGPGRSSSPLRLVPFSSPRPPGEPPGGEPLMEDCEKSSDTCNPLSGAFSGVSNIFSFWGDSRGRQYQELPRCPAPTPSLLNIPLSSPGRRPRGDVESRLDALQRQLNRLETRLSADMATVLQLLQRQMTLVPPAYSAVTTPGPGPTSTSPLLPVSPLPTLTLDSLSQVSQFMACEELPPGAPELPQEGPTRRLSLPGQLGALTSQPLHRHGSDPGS

With `NC1CCN(C(=O)c2ccc(-c3ccc4ncc(-c5cc6ccccc6o5)n4c3)cc2)CC1`, the IC50 (in general, the concentration at which inhibition is half-maximal) in data set [1] was determined as 4.4 µM.

Regarding `N[C@H]1CCCN(C(=O)c2ccc(-c3ccc4ncc(-c5cc6ccccc6o5)n4n3)cc2)C1`, the IC50 in [1] was above 30 µM.

`CN(C)C1CCN(C(=O)c2ccc(-c3ccc4ncc(-c5cc6ccccc6o5)n4c3)cc2)CC1` came in with an IC50 in data set [1] of 1.03 µM.

Regarding `O=C(c1ccc(-c2ccc3ncc(-c4cc5ccccc5o4)n3n2)cc1)N1CCC(N2CCCCC2)CC1`, the IC50 in data set [1] was above 30 µM.

For `O=C(c1ccc(-c2ccc3ncc(-c4cc5ccccc5o4)n3n2)cc1)N1CCOCC1`, the IC50 in data set [1] is above 30 µM.

As for `N[C@@H]1CCCN(C(=O)c2ccc(-c3ccc4ncc(-c5cc6ccccc6o5)n4n3)cc2)C1`, the midpoint of inhibition in [1], the IC50, lay at 5.82 µM.

Turning to `N[C@@H]1CCCN(C(=O)c2ccc(-c3ccc4ncc(-c5cc6ccccc6o5)n4c3)cc2)C1`, the IC50 in data set [1] is 4.66 µM.

In [1], `CN(C)C1CCN(C(=O)c2ccc(-c3ccc4ncc(-c5cc6ccccc6o5)n4n3)cc2)CC1` gave an IC50 of 2.97 µM.

In data set [1], `NC1CCN(C(=O)c2ccc(-c3ccc4ncc(-c5cc6ccccc6o5)n4n3)cc2)CC1` had an IC50 of 7.98 µM.

Consider `N#Cc1ccc(-c2cnc3ccc(-c4ccc(C(=O)N5CCOCC5)cc4)cn23)cc1` [TINODASERTIB], for which the values for the half-life in [2], in [3] and in data set [4] were 0.302 h, 1.39 h and 1.12 h, respectively.

`Cc1cc(Nc2cc(N)ncn2)c(=O)n2c1C(=O)NC21CCCCC1` [TOMIVOSERTIB]: the IC50 in [5] is above 50 µM; in data set [6], above 50 µM; in [7] it was 6.3 µM; in data set [8], above 50 µM; in data set [9] it was 6.27 µM; in data set [11], above 50 µM. In addition, the IC50 was above 30 µM in data set [1], 29.4 µM in data set [12] and 45 µM in data set [13]. The half-life in [2], in data set [3] and in [4] was above 2 h in each case. Moreover, in data set [10], the inhibition in vivo at 10 mg/kg came out at 75%.

(Values after ChEMBL document CHEMBL5518245, “Development of an Imidazopyridazine-Based MNK1/2 Inhibitor for the Treatment of Lymphoma” (J Med Chem, 2024).)
